Data taken from patent US12458693B2, “Methods of treating iron overload with a BMP inhibitor” (Keros Therapeutics, Inc., priority 2020, dated 2025).
Entries after “also recorded” stand apart in the source; their conditions may differ.

Tests used:
[1] = Phase 1 SAD/MAD study in healthy volunteers: safety and tolerability; format: in vivo, human; conditions: for dose level up to which well tolerated: healthy participants
Description: A total of 131 healthy, males aged 18 to 60 years and post-menopausal females aged 45 to 60 years, participated in this study.
(§1) The primary objectives of this study were to a) evaluate safety and tolerability of escalating doses of the compound of Formula I-11 administered as single and multiple oral doses in healthy male volunteers and healthy postmenopausal female volunteers and b) evaluate the PK parameters following escalating doses of the compound of Formula I-11 administered as single and multiple oral doses. The secondary objective of this study was to evaluate the pharmacodynamic (PD) parameters following escalating doses of the compound of Formula I-11 administered as single and multiple oral doses. This study was conducted in two parts.
Part 1 included 80 participants (10 cohorts of 8 participants each). Male and female participants who met the eligibility criteria were randomly assigned, in a ratio of 3:1 to receive the compound of Formula I-11 or matching placebo, N=6 and 2 per dose cohort, respectively. Participant enrollment included […] males and 12.5% females (postmenopausal). The IMP formulation used in Cohorts 1 through 6 was an oral capsule (doses of 1, 3, 10, 30, 100, or 300 mg capsule formulation). An oral liquid formulation was evaluated in Cohorts 7 through 10 (doses of 30, 100, 300 or 450 mg liquid formulation).
(§2) Participants in Part 1 received a single oral dose of the compound of Formula I-11 or placebo on Day 1 and serial PK samples were collected. Baseline assessments were performed on day −1 prior to dosing. Samples were collected for determination of pharmacodynamic parameters at pre-dose daily and up to 24 hours post dose (day 2) after a single oral dose of the compound of Formula I-11. Participants remained at the study site for observation for 24 hours post-dose through the PK sample collection on Day 2. Participants returned to the site for the 48, 72, and 120-hour post-dose sample collection on Days 3, 4, and 6. Safety was evaluated by a Safety Review Committee prior to escalation to the next dose level cohort.
Part 2, Cohorts 1 through 4, included 41 participants (4 cohorts of 10 participants each and 1 additional placebo participant in Cohort 1). Male and female participants who met the eligibility criteria were randomly assigned at a ratio of 4:1 to receive either the compound of Formula I-11 oral liquid formulation or matching placebo, N=8 and 2 per dose cohort respectively. Forty (97.6%) males and 1 (2.4%) female (placebo) participant were enrolled.
(§3) Participants in Part 2, Cohorts 1 through 3, received a daily oral dose of the compound of Formula I-11 (50, 100, or 200 mg liquid formulation respectively) or placebo for 7 days. A daily oral dose of the compound of Formula I-11 or placebo in participants in Part 2, Cohort 4 (350 mg liquid formulation) was planned for 14 days but was discontinued early in all subjects, either by the Investigator because of AEs, or by the Sponsor. A decision was made by the Sponsor to discontinue dosing of the entire cohort based on the frequency of AEs and laboratory abnormalities after Day 9. In Cohort 4, participants on the compound of Formula I-11 received daily oral dosing of 350 mg for up to 7 days; one placebo participant received daily oral dosing for 9 days. Samples were collected for determination of pharmacodynamic parameters at pre-dose daily and to 24 hours post dose (day 8) while on drug. Daily trough PK samples were collected for the determination of steady-state from Day 2 to Day 12 or 13. Participants returned to the site on Day 30 for an end-of-study visit. Safety was evaluated by a Safety Review Committee prior to escalation to the next dose level cohort.
Part 2, MAD Cohort 5 (C5) participants received either the compound of Formula I-11, 100 mg (n=8) or placebo (n=2) on Days 1, 2, 3, 4, 5, 6, 7. The last dose was administered on the morning of Day 7. […]

lymphocytes = assay: Lymphocyte counts in healthy volunteers (MAD); format: in vivo, human
Method: as §3

serum hepcidin = assay: Serum hepcidin in healthy volunteers (Intrinsic Hepcidin IDx ELISA); format: in vivo, human
Method: as §3, with “Daily trough PK samples were collected for the determination of steady-state from Day 2 to Day 12 or 13. Participants returned to the site on Day 30 for an end-of-study visit.” left out, “cohort. […]” for “cohort.”
(§4) Pharmacodynamic endpoints: Protocol-specified endpoints were assessed at baseline and regularly throughout the study period. These assessments included measurements of serum iron, transferrin saturation (calculated as serum iron/total iron-binding capacity), serum ferritin, serum hepcidin, and reticulocyte hemoglobin content. […]

serum ferritin = assay: Serum ferritin in healthy volunteers; format: in vivo, human
Method: as §2
Participants in Part 2, Cohorts 1 through 3, received a daily oral dose of the compound of Formula I-11 (50, 100, or 200 mg liquid formulation respectively) or placebo for 7 days. […] Safety was evaluated by a Safety Review Committee prior to escalation to the next dose level cohort.
as §4

transferrin saturation = assay: Transferrin saturation (TSAT) in healthy volunteers; format: in vivo, human
Method: as §2, §3
(§5) Pharmacodynamic endpoints: Protocol-specified endpoints were assessed at baseline and regularly throughout the study period. These assessments included measurements of serum iron, transferrin saturation (calculated as serum iron/total iron-binding capacity), serum ferritin, serum hepcidin, and reticulocyte hemoglobin content. Measurements of all pharmacodynamic end points were made using standard clinical laboratory tests. Hepcidin analysis was performed using an ELISA kit from Intrinsic LifeSciences (Intrinsic Hepcidin IDx™ ELISA kit).

serum iron [2] = assay: Serum iron in healthy volunteers; format: in vivo, human
Method: as §2, §3, §5

[3] = Phase 1 SAD/MAD study in healthy volunteers: pharmacokinetics; format: in vivo, human
Description: as §1
Participants in Part 1 received a single oral dose of the compound of Formula I-11 or placebo on Day 1 and serial PK samples were collected. Baseline assessments were performed on day −1 prior to dosing. Samples were collected for determination of pharmacodynamic parameters at pre-dose daily and up to 24 hours post dose (day 2) after a single oral dose of the compound of Formula I-11. […] Safety was evaluated by a Safety Review Committee prior to escalation to the next dose level cohort.
Participants in Part 2, Cohorts 1 through 3, received a daily oral dose of the compound of Formula I-11 (50, 100, or 200 mg liquid formulation respectively) or placebo for 7 days. […] Safety was evaluated by a Safety Review Committee prior to escalation to the next dose level cohort. […]

[4] = tested on: reticulocyte hemoglobin content; assay: Reticulocyte hemoglobin content in healthy volunteers (MAD); format: in vivo, human
Method: as §3, §5

hepcidin 25 = assay: Time course of serum hepcidin in wild-type mice (ELISA); format: in vivo, C57BI/6 mice; conditions: 5 mg/kg gavage once daily, third treatment day
Method: (§6) To assess the effect of the compound of Formula I-42, a small molecule selective ALK2 kinase inhibitor, on hepcidin and serum iron, a time course experiment was conducted. For time course analysis, female C57BI/6 mice were gavaged once daily with either the compound of Formula I-42 (5 mg/kg), or vehicle. On the third treatment day, ten mice from each dosing group were euthanized 4, 6, 8, 12, 16, or 24 hours post-dosing. Blood was sampled and serum extracted. The mature form of hepcidin (hepcidin 25) was measured in serum with the use of a commercial ELISA (Intrinsic LifeSciences, CA) as per the manufacturer's instructions. Serum iron levels were determined with the use of a commercial assay that was based on the standard bathophenanthroline disulfonate method (BioAssay Systems, CA) as per the manufacturer's instructions. […] Data are shown as the average±SEM.

[5] = tested on: non-dextran-bound iron content in livers; assay: Non-dextran-bound liver iron in iron dextran mouse model of iron overload, second assay (10% HCl 10% TCA extraction); format: in vivo, CD1 mice; conditions: 5 mg/kg QD, iron overloaded mice; **P<0.01, ****P<0.0001
Method: (§7) After 20 days of iron loading, a subgroup of mice was sacrificed to confirm iron overload. The remaining iron loaded mice were dosed QD with either the compound of Formula I-42, a small molecule selective ALK2 kinase inhibitor (5 mg/kg) or vehicle. […] Mice were sacrificed 16 hours post the 1st dose (16 hr) and […] post the 3rd dose (63 hr) of the compound of Formula I-42 and livers dissected and weighed.
(§8) In the second assay, non-heme tissue iron was extracted via acid hydrolysis and iron levels determined using the bathophenanthroline disulfonate method. Briefly, 50 mg sections of mouse liver were flash frozen on liquid nitrogen at study termination. Samples were processed by addition of a 10% HCl 10% Trichloroacetic acid mixture and allowed to extract for 20 hours at 65° C. Following extraction, samples were cooled to room temperature and centrifuged briefly. Samples were transferred to a 96-well plate at the appropriate dilution and a chromogen reagent mixture containing of bathophenanthrolinedisulfonic acid, thioglycolic acid, and saturated sodium acetate was added. Samples and standards and blanks were then read via absorbance at 535 nm on a SpectraMax plate reader after a brief incubation. Sample concentrations were determined by linear regression analysis in GraphPad Prism. […] Data are shown as average±SEM. […]

serum iron [6] = assay: Time course of serum iron in wild-type mice (bathophenanthroline disulfonate method); format: in vivo, C57BI/6 mice; conditions: 5 mg/kg gavage once daily
Method: as §6

liver iron content = assay: Liver iron content in iron dextran mouse model of iron overload, first assay (30% HCl 10% TCA extraction); format: in vivo, CD1 mice; conditions: 5 mg/kg QD, by 63 hours of dosing, iron overloaded mice; ****P<0.0001
Method: as §7
as §8, with “Two assays were performed to evaluate tissue iron. In” for “In”, “the first” for “the second”, “a 30%” for “a 10%”, “containing” for “containing of”, “standards” for “standards and blanks”, “reader immediately.” for “reader after a brief incubation.”

[7] = Day 4, MAD first dose level (50 mg daily)
[8] = Day 4, MAD fourth dose level (350 mg daily)
[9] = Day 4, MAD second dose level (100 mg daily)
[10] = Day 4, MAD third dose level (200 mg daily)

COc1cc2c(-c3cnn4cc(N5CCC(N6CCN(C)CC6)CC5)cnc34)ccnc2cc1F [Formula I-11]
dose level up to which well tolerated ([1]; after 7 daily oral doses): up to 200 mg
AEs reported in >2 treated subjects and higher than placebo ([1]; human, in vivo): headache, nausea, vomiting, diarrhea, gastroenteritis, chills, pyrexia, myalgia, decreased appetite, lymphopenia, neutropenia, abdominal discomfort, abdominal pain (upper), dizziness, fatigue, rhinorrhea, tonsillitis, and liver enzyme increases
AEs that led to study drug discontinuation in three or more participants ([1]; human, in vivo): lymphopenia and chills
participants who discontinued the study due to AEs ([1]; human, in vivo): 10 of 40 (25%)
serious adverse events ([1]; human, in vivo): no serious adverse events
severity of the majority of AEs ([1]; human, in vivo): mild or moderate in severity
subjects who discontinued the study due to AEs ([1]; human, in vivo): none
subjects with increases in ALT>2×ULN ([1]; human, in vivo): 3
dose level up to which well tolerated ([1]; single oral dose): up to 450 mg
reversibility of lymphopenia (lymphocytes; after the treatment period ended): reversible
development of lymphopenia (lymphocyte counts<1.0×10^9 cells/L) (lymphocytes; repeated oral administration, onward): ≥ 6 day
start of decreases in lymphocyte counts (lymphocytes; repeated oral administration, post treatment, higher doses): 5 days
earliest decrease in hepcidin after first dose (serum hepcidin; MAD Cohort 5, 100 mg): 4 h
effect on serum hepcidin versus placebo (serum hepcidin; once-daily oral over 7 days, similar at 50 mg, 100 mg and 200 mg): robust decreases in baseline hepcidin
effect on serum ferritin (serum ferritin; MAD cohort participants): decreases were observed in serum ferritin
effect on serum ferritin, single versus multiple doses (serum ferritin; SAD versus MAD): observed only after multiple doses
transferrin saturation mean percent change from baseline (transferrin saturation; [7]): 1.6%
transferrin saturation mean percent change from baseline (transferrin saturation; [8]): 30.1%
transferrin saturation mean percent change from baseline (transferrin saturation; [9]): 1.5%
transferrin saturation mean percent change from baseline (transferrin saturation; [10]): 7.5%
observed PD response (transferrin saturation) (transferrin saturation; once-daily doses of 50 mg): not substantially different from placebo
observed PD response (transferrin saturation) (transferrin saturation; single dose of 30 mg, liquid formulation): not substantially different from placebo
effect on transferrin saturation (transferrin saturation; single or repeated doses of 100 mg or above): sustained, dose-related increases in transferrin saturation
serum iron mean change from baseline (serum iron [2]; [7]): 1.48 μM/L
serum iron mean change from baseline (serum iron [2]; [8]): 17.71 μM/L
serum iron mean change from baseline (serum iron [2]; [9]): 0.59 μM/L
serum iron mean change from baseline (serum iron [2]; [10]): 5.11 μM/L
serum iron concentrations by Day 7 (serum iron [2]; MAD, some participants exhibiting large PD effects on Day 4): returned to baseline or below
time of peak serum iron concentrations (serum iron [2]; multiple dose regimen, day of treatment): Day 3 or 4
effect on serum iron (serum iron [2]; single (SAD) or once-daily (MAD) oral administration): rapid, robust, and sustained dose-related increases in serum iron
time of peak serum iron effect (serum iron [2]; single dose, Day 2, post-dose): 24 h
half-life ([3]; both sexes, human, in vivo, oral, approximately): 10 to 15 h
mean AUC and Cmax versus dose ([3]; multiple doses from 50-200 mg): increased linearly with greater than dose-proportional increases
peak increase in reticulocyte hemoglobin content ([4]; MAD): 7 days
start of increase in reticulocyte hemoglobin content ([4]; MAD cohorts 1-4, post-dosing): 4 days
effect on reticulocyte hemoglobin content ([4]; repeated administration): increases over baseline in the hemoglobin content of reticulocytes

COc1cc2c(-c3cnn4cc(N5CC(N6CCN(C)CC6)C5)cnc34)ccnc2cc1F [Formula I-42]
onset of hepcidin reduction (hepcidin 25): as soon as four hours post-administration
hepcidin reduction sustained through (hepcidin 25; post-administration): 12 h
effect on circulating hepcidin (hepcidin 25; wild-type mice): reduced circulating hepcidin levels
effect on non-dextran-bound iron content in livers [5]: significantly reduced non-dextran-bound iron content
peak serum iron (serum iron [6]; at 16 hours, average): 716.31 µg/dL
onset of serum iron increase (serum iron [6]; third treatment day): eight hours post-administration
time of peak serum iron (serum iron [6]; third treatment day, post-administration): 16 h
effect on serum iron (serum iron [6]; third treatment day, wild-type mice): increased serum iron
effect on liver iron content (liver iron content): reduce liver iron content; also recorded: significantly reduced liver iron content
